Measured values: patent publication US10899776B2, “Antiviral and antibacteria agents based on quaternary ammonium compound complexed with boric acid and its derivatives” (B-Organic Films Corp, priority 2015, dated 2021)
Like-named read-outs stand apart in the source and are kept apart here.

System: L. vannamei shrimp gene expression
Protocol: RNA is extracted using TRIzol® and the Qiagen RNeasy® Mini Kit (Qiagen, Germantown, Md., USA). Shrimp samples immersed in TRIzol® are placed in the FastPrep®-24 (MP Biomedicals LLC, Solon, Ohio, USA) and homogenized during 4° C. for 40 s pulses at 6 m/s. A volume of 200 μL of chloroform is added to a 1.5 mL RNase free tube containing the homogenate material and inverted 15 times. Samples are incubated at room temperature for 3 min before centrifuged at 8000 g for 15 min at 4° C. using the Eppendorf centrifuge. The supernatant is carefully transferred into a new 1.5 mL RNase free tube and the extraction continued following the manufacturer's protocol.
The quality and quantity of RNA are determined by the NanoDrop™ 1000 spectrophotometer (Thermo Fisher Scientific, Waltham, Mass., USA) and Bio-Rad™ (Bio-Rad, Hercules, Calif., USA) using denatured gel electrophoresis with formaldehyde and buffer MOPS 1× (Sambrook, J. 1989. in: «Molecular cloning—a laboratory manual, 2nd ed». J. Sambrook, E. F. Fritsch, T. Maniatis Eds. Cold Spring Harbor, N.Y.: Cold Spring Harbor Laboratory Press).
Microarrays are designed based on publically available gene sequences and ESTs determined from cDNA libraries representing multiple tissues of male and female L. vannamei shrimp, and/or of various physiological conditions.
In total, a length of oligonucleotides about of 61440-mer is included in this study: 39592 shrimp ESTs; 1216 Quality control spots; 112 positive control Alexa-555 dye; 80 positive control Alexa 647 dye; 20320 Unigenes; 16 astringent positive control alexa-555: 16 astringent positive control Alexa-647 dye and 88 negative control empty are submitted to the MYcroarray (University of Michigan, Chemical Engineering Department) for printing on aminosaline glass slides. The exposure and reference sample RNAs are adjusted to final volume 19 μL with oligo d(T) (2 μg/μL) and random primers. (1 μg/μL) in water molecular biology grade. The samples are incubated at 70° C. for 10 min and are then chilled in ice. The samples are mixed finally with 5× Reaction Buffer Superscript II kit (Invitrogen, Life technologies, Carlsbad Calif., USA): 25 mM MgCl2; aminoallyl-dNTP with dUTP (3:1); 0.1 M DTT and 200 U/μL Superscript II Reverse Transcriptase. The mix is incubated at 25° C. for 10 min and then at 42° C. for 2 hours. RNA hydrolysis is made with 5 μL of NaOH 1 N and 1 μL of EDTA 0.5 M. The mixture is incubated at 65° C. for 10 min, and then added 25 μL of HEPES 1 M at pH 7.5. […] The aminoallyl-DNA (aa-DNA) is purified using QIAquick™ (Qiagen, Duesseldorf, Germany). A volume of 7 μL of sodium acetate 3 M and 400 μL binding buffer supplied by the Kit are added. The mixture is allowed to stand 5 min according to the manufacturer's instructions for purification. The eluted aa-DNA is concentrated in a Vacufuge™ until dry and is resuspended in 4.5 μL of sodium bicarbonate 100 mM (pH 9.0). The reaction is conducted in darkness at room temperature overnight. The aa-DNA labeled is purified using QIAquick™ (Qiagen, Duesseldorf, Germany) and eluted with 50 uL water. The aa-DNA labeled is quantified in a Nanodrop™ 1000 spectrophotometer (Thermo Fisher Scientific, Waltham, Mass., USA).
After completely drying in a Vacufuge concentrator, the aa-DNA labeled is resuspended in hybridation mixture containing: ˜0.1 optical density units of aa-DNA labeled from each sample; SSC (5×) buffer; 0.1% SDS; 1× buffer TE. The hybridation mixture is desaturated at 94° C. for 5 min and finally at 65° C. for 30 s. The mixture is placed in the microarray slide previously placed in a chamber for microarray hybridization and covered using a RNase-free plastic coverslip (Hybrislip, Schleicher & Schuell, HS40—40×22 mm; HS22—22×22 mm via Thomas Scientific). The hybridation chamber is incubated at 42° C. overnight.
The slide is placed in a 50 mL conical tube for the first wash and a volume of 50 mL of SSC (1×) buffer and of SDS 0.05% are added for 1 min.

[1] = 2-Down regulated genes, feed 5 mg/g
[2] = 2-Up regulated genes, feed 5 mg/g
[3] = 2-fold Down-regulated genes (treated) versus all genes
[4] = 2-fold Up-regulated genes (treated) versus all genes
[5] = diets supplemented with the complex
[6] = feed 5 mg/g, 14 days, of 262 2-fold Down-regulated genes
[7] = feed 5 mg/g, 14 days, of 583 2-fold Up-regulated genes
[8] = treated vs control shrimp, 57,193 spots available to analysis

C[N+](C)(C)CCOB1OB2OB(O1)OB1OB(O2)O1.[Cl-] [choline/pentaborate complex]
# Enzymes, Aminoacyl-tRNA biosynthesis [1]: 3 | # Enzymes, Ascorbate and aldarate metabolism [1]: 2 | # Enzymes, Glycolysis/Gluconeogenesis [1]: 3 | # Enzymes, Oxidative phosphorylation [1]: 4 | # Enzymes, Pentose and glucuronate interconversions [1]: 2 | # Enzymes, Pentose phosphate pathway [1]: 5 | # Enzymes, Phenylalanine metabolism [1]: 1 | # Enzymes, Phenylpropanoid biosynthesis [1]: 1 | # Enzymes, Purine metabolism [1]: 3 | # Enzymes, Starch and sucrose metabolism [1]: 2 | # Genes, Aminoacyl-tRNA biosynthesis [1]: 3 | # Genes, Ascorbate and aldarate metabolism [1]: 3 | # Genes, Glycolysis/Gluconeogenesis [1]: 3 | # Genes, Oxidative phosphorylation [1]: 6 | # Genes, Pentose and glucuronate interconversions [1]: 3 | # Genes, Pentose phosphate pathway [1]: 5 | # Genes, Phenylalanine metabolism [1]: 3 | # Genes, Phenylpropanoid biosynthesis [1]: 3 | # Genes, Purine metabolism [1]: 4 | # Genes, Starch and sucrose metabolism [1]: 5 | # Enzymes, Amino sugar and nucleotide Sugar metabolism [2]: 7 | # Enzymes, Cytochrome P450 [2]: 3 | # Enzymes, Glutathione metabolism [2]: 5 | # Enzymes, Glycolysis [2]: 8 | # Enzymes, Oxidative phosphorylation [2]: 6 | # Enzymes, Pentose phosphate pathway [2]: 4 | # Enzymes, Purine metabolism [2]: 7 | # Enzymes, Pyruvate metabolism [2]: 6 | # Enzymes, Valine, leucine and isoleucine degradation [2]: 6 | # Genes, Amino sugar and nucleotide Sugar metabolism [2]: 8 | # Genes, Cytochrome P450 [2]: 6 | # Genes, Glutathione metabolism [2]: 7 | # Genes, Glycolysis [2]: 8 | # Genes, Oxidative phosphorylation [2]: 18 | # Genes, Pentose phosphate pathway [2]: 5 | # Genes, Purine metabolism [2]: 14 | # Genes, Pyruvate metabolism [2]: 6 | # Genes, Valine, leucine and isoleucine degradation [2]: 6 | Fisher's exact test GO term Extracellular region part [3]: 5.69% | Fisher's exact test GO term Gas transport [3]: 2.03% | Fisher's exact test GO term Oxygen transporter activity [3]: 2.03% | Fisher's exact test GO term Photoreceptor cell differentiation [3]: 2.43% | Fisher's exact test GO term Regulation of protein metabolic process [3]: 10.56% | Fisher's exact test GO term Starch metabolic process [3]: 2.03% | Fisher's exact test GO term Sucrose metabolic process [3]: 2.03% | Fisher's exact test GO term Toll-like Receptor for signaling pathway [3]: 1.62% | Fisher's exact test GO term Translation factor activity, nucleic acid binding [3]: 4.47% | Fisher's exact test GO term Transporter activity [3]: 10.56% | Fisher's exact test GO term extracellular region [3]: 9.75% | Fisher's exact test GO term extracellular space [3]: 4.87% | Fisher's exact test GO term Actin Cytoskeleton [4]: 4.62% | Fisher's exact test GO term Calcium Ion Binding [4]: 4.25% | Fisher's exact test GO term Cytoskeletal Protein Binding [4]: 5.55% | Fisher's exact test GO term Hydrogen Transport [4]: 4.81% | Fisher's exact test GO term Ion Transport [4]: 8.15% | Fisher's exact test GO term Monosaccharide Metabolic Process [4]: 4.10% | Fisher's exact test GO term Monovalent Inorganic Cation Transport [4]: 5.92% | Fisher's exact test GO term Positive Regulation of Biosynthetic Process [4]: 3.70% | Fisher's exact test GO term Positive Regulation of Cellular Biosynthetic Process [4]: 3.70% | Fisher's exact test GO term Proton Transport [4]: 4.81% | number of immune related genes that are over-expressed (2-fold Up-regulated, GO term 0006955, feed 5 mg/g, 14 days): at least 33 | number of modulated genes associated to Biogenesis [5]: 59 | number of modulated genes associated to Biological regulation [5]: 73 | number of modulated genes associated to Cellular process [5]: 159 | number of modulated genes associated to Developmental process [5]: 40 | number of modulated genes associated to Localization [5]: 66 | number of modulated genes associated to Metabolic process [5]: 166 | number of modulated genes associated to Response to stimuli [5]: 43 | number of modulated genes associated to Signaling [5]: 26 | number of 2-fold Up-regulated genes (feed 5 mg/g, 14 days): 583 | number of genes with a 2-fold Down-regulated expression (feed 5 mg/g, 14 days): 262 | Down-regulated genes in biological process Biological Regulation [6]: 9% | Down-regulated genes in biological process Cellular Component Organization or Biogenesis [6]: 7% | Down-regulated genes in biological process Cellular Process [6]: 20% | Down-regulated genes in biological process Developmental Process [6]: 5% | Down-regulated genes in biological process Localization [6]: 8% | Down-regulated genes in biological process Metabolic Process [6]: 20% | Down-regulated genes in biological process Multicellular Process [6]: 6% | Down-regulated genes in biological process Response to Stimulus [6]: 5% | Down-regulated genes in biological process Signaling [6]: 3% | Down-regulated genes in biological process Single-organism Process [6]: 17% | Down-regulated genes with molecular function Binding [6]: 44% | Down-regulated genes with molecular function Catalytic Activity [6]: 40% | Down-regulated genes with molecular function Enzyme Regulator Activity [6]: 3% | Down-regulated genes with molecular function Structural Molecule Activity [6]: 4% | Down-regulated genes with molecular function Transporter Activity [6]: 9% | Up-regulated genes in biological process Biological Regulation [7]: 9% | Up-regulated genes in biological process Cellular Component Organization or Biogenesis [7]: 7% | Up-regulated genes in biological process Cellular Processes [7]: 20% | Up-regulated genes in biological process Developmental Process [7]: 6% | Up-regulated genes in biological process Localization [7]: 7% | Up-regulated genes in biological process Metabolic Process [7]: 18% | Up-regulated genes in biological process Multicellular Organismal Process [7]: 6% | Up-regulated genes in biological process Response to Stimulus [7]: 6% | Up-regulated genes in biological process Signaling [7]: 4% | Up-regulated genes in biological process Single-organism Process [7]: 17% | Up-regulated genes with molecular function Binding Activity [7]: 44% | Up-regulated genes with molecular function Catalytic Activity [7]: 43% | Up-regulated genes with molecular function Structural Molecule Activity [7]: 6% | Up-regulated genes with molecular function Transporter Activity [7]: 7% | Number of spots, Expression Levels (Score) 1 to 1.5 [8]: 3,662 | Number of spots, Expression Levels (Score) 1.5 to 2 [8]: 1,984 | Number of spots, Expression Levels (Score) <−2 [8]: 1,434 | Number of spots, Expression Levels (Score) >2 [8]: 1,650 | Number of spots, Expression Levels (Score) −1.5 to −1 [8]: 3,221 | Number of spots, Expression Levels (Score) −1.5 to −2 [8]: 1,259 | Number of spots, No regulated genes (−1 to 1) [8]: 43,950
